In patent EP0847397B1, “WATER-SOLUBLE C-RING ANALOGUES OF 20 (S)-CAMPTOTHECIN” (DR. REDDY'S RESEARCH FOUNDATION, priority 1996, dated 1997):

Assays:
T 47D = assay: NCI in vitro 60 human tumor cell line assay; type: cell-based; settings: T47D, 48 h, read-out: Total Growth Inhibition (TGI)
Protocol: (§1) Each test compound was screened against a battery of 60 human cell lines obtained from eight organs. In a typical procedure, the cell suspensions that were diluted according to the particular cell type and the expected target cell density (5000-40,000 cells per well based on cell growth characteristics) were added into 96-well microtiter plates. Inoculates were allowed a preincubation period of 24h at 37°C. for stabilization. Dilutions at twice the intended test concentrations were added at time zero in 100-µl aliquots to microtiter plate wells. Usually test compounds were evaluated at five 10-fold dilutions. The highest well concentration used in the test is 10^-4M. The cells are then incubated in the presence of drug (the test compound) for further 48h in 5% CO2 atmosphere and 100% humidity. At the end of this time, the adherent cells are fixed to the plate by means of trichloroacetic acid, and after a number of washes, the cell layer is treated with the protein stain Sulforhodamine B. The optical density which is proportional to protein mass, is then read by automated spectrophotometric plate readers at a wavelength of 515 nm. Readings are transferred to a microcomputer and final reports are generated using especially developed software.

MDA-MB-435 = assay: NCI in vitro 60 human tumor cell line assay; type: cell-based; settings: MDA-MB-435, 48 h, read-out: Total Growth Inhibition (TGI)
H 226 = assay: NCI in vitro 60 human tumor cell line assay; type: cell-based; settings: NCI-H226, 48 h, read-out: Total Growth Inhibition (TGI)
Protocol: as §1

SN12C = assay: NCI in vitro 60 human tumor cell line assay; type: cell-based; settings: 48 h, read-out: Total Growth Inhibition (TGI)
Protocol: as §1

786-O = assay: NCI in vitro 60 human tumor cell line assay; type: cell-based; settings: 786-0, 48 h, read-out: Total Growth Inhibition (TGI)
Protocol: (§2) Each test compound was screened against a battery of 60 human cell lines obtained from eight organs. In a typical procedure, the cell suspensions that were diluted according to the particular cell type and the expected target cell density (5000-40,000 cells per well based on cell growth characteristics) were added into 96-well microtiter plates. Inoculates were allowed a preincubation period of 24h at 37°C. for stabilization. Dilutions at twice the intended test concentrations were added at time zero in 100-µl aliquots to microtiter plate wells. Usually test compounds were evaluated at five 10-fold dilutions. The highest well concentration used in the test is 10^-4M. The cells are then incubated in the presence of drug (the test compound) for further 48h in 5% CO2 atmosphere and 100% humidity. At the end of this time, the adherent cells are fixed to the plate by means of trichloroacetic acid, and after a number of washes, the cell layer is treated with the protein stain Sulforhodamine B. The optical density which is proportional to protein mass, is then read by automated spectrophotometric plate readers at a wavelength of 515 nm.

H 460 = assay: NCI in vitro 60 human tumor cell line assay; type: cell-based; settings: Homo sapiens, NCI-H460, 48 h, read-out: Total Growth Inhibition (TGI)
Protocol: as §1

COLO 205 = assay: NCI in vitro 60 human tumor cell line assay; type: cell-based; settings: COLO 205, 48 h, read-out: Total Growth Inhibition (TGI)
Protocol: as §1

CAKI = assay: NCI in vitro 60 human tumor cell line assay; type: cell-based; settings: 48 h, read-out: Total Growth Inhibition (TGI)
Protocol: as §1

HOP 92 = assay: NCI in vitro 60 human tumor cell line assay; type: cell-based; settings: HOP-92, 48 h, read-out: Total Growth Inhibition (TGI)
[1] = system: NCI's 60 human tumor cell line assay; assay: cells; type: cell-based; settings: 60 cell, 48 h, read-out: IC50 (mean GI50 against NCI's 60 human tumor cell line assay)
Protocol: as §1

MDA-N = assay: NCI in vitro 60 human tumor cell line assay; type: cell-based; settings: BREAST, 48h, read-out: Total Growth Inhibition (TGI)
Protocol: as §2

H 322M = assay: NCI in vitro 60 human tumor cell line assay; type: cell-based; settings: NCI-H322M, 48 h, read-out: Total Growth Inhibition (TGI)
Protocol: as §1

ACHN = assay: NCI in vitro 60 human tumor cell line assay; type: cell-based; settings: 48 h, read-out: Total Growth Inhibition (TGI)
Protocol: as §1

A 498 = assay: NCI in vitro 60 human tumor cell line assay; type: cell-based; settings: A498, 48 h, read-out: Total Growth Inhibition (TGI)
Protocol: as §1

H 522 = assay: NCI in vitro 60 human tumor cell line assay; type: cell-based; settings: NCI-H522, 48 h, read-out: Total Growth Inhibition (TGI)
Protocol: as §1

H 23 = assay: NCI in vitro 60 human tumor cell line assay; type: cell-based; settings: NCI-H23, 48 h, read-out: Total Growth Inhibition (TGI)
Protocol: as §1

RXF 393 = assay: NCI in vitro 60 human tumor cell line assay; type: cell-based; settings: RXF 393, 48 h, read-out: Total Growth Inhibition (TGI)
Protocol: as §1

UO 31 = assay: NCI in vitro 60 human tumor cell line assay; type: cell-based; settings: UO-31, 48 h, read-out: Total Growth Inhibition (TGI)
Protocol: as §1

HCT 15 = assay: NCI in vitro 60 human tumor cell line assay; type: cell-based; settings: HCT-15, 48 h, read-out: Total Growth Inhibition (TGI)
Protocol: as §1

HT 29 = assay: NCI in vitro 60 human tumor cell line assay; type: cell-based; settings: Homo sapiens, HT-29, 48 h, read-out: Total Growth Inhibition (TGI)
Protocol: as §1

HCC 2998 = assay: NCI in vitro 60 human tumor cell line assay; type: cell-based; settings: Homo sapiens, HCC 2998, 48 h, read-out: Total Growth Inhibition (TGI)
Protocol: as §1

HCT 116 = assay: NCI in vitro 60 human tumor cell line assay; type: cell-based; settings: HCT-116, 48 h, read-out: Total Growth Inhibition (TGI)
MCF 7/ ADR = assay: NCI in vitro 60 human tumor cell line assay; type: cell-based; settings: Homo sapiens, NCI/ADR-RES, 48 h, read-out: Total Growth Inhibition (TGI)
Protocol: as §1

BT 549 = assay: NCI in vitro 60 human tumor cell line assay; type: cell-based; settings: BT-549, 48 h, read-out: Total Growth Inhibition (TGI)
Protocol: as §1

KM 12 = assay: NCI in vitro 60 human tumor cell line assay; type: cell-based; settings: KM12, 48 h, read-out: Total Growth Inhibition (TGI)
Protocol: as §1

KD 488 = assay: In vitro activity against AIDS related Lymphoma (ARL) cell lines (NCI protocol); type: cell-based; settings: Homo sapiens, KD 488, ARL cell line
MCF7 / ADR / RES = assay: NCI in vitro 60 human tumor cell line assay; type: cell-based; settings: 48 h, read-out: Total Growth Inhibition (TGI)
Protocol: as §1

[2] = NCI in vitro 60 human tumor cell line assay; type: cell-based; settings: 48 h, read-out: Total Growth Inhibition (TGI)
Protocol: as §1

MCF 7 = assay: NCI in vitro 60 human tumor cell line assay; type: cell-based; settings: MCF7, 48 h, read-out: Total Growth Inhibition (TGI)
Protocol: as §1

HOP 62 = assay: NCI in vitro 60 human tumor cell line assay; type: cell-based; settings: HOP-62, 48 h, read-out: Total Growth Inhibition (TGI)
[3] = result in words, compared with 20(S)-camptothecin; cited from earlier work

CC[C@@]1(O)C(=O)OCc2c1cc1n(c2=O)C(OCC(F)(F)F)c2cc3c([N+](=O)[O-])cccc3nc2-1 (stereo partly shown) [Example 28, 9-Nitro-5-trifluoroethoxycamptothecin]
IC (TGI) (T 47D): 1.09 µM
IC (TGI) (MDA-MB-435): 11.4 µM
IC (TGI) (H 226): 4.3 µM
IC (TGI) (SN12C): 2.31 µM
IC (TGI) (786-O): 0.85 µM
IC (TGI) (H 460): 1.22 µM
IC (TGI) (COLO 205): 9.48 µM
IC (TGI) (CAKI): 0.75 µM
IC (TGI) (HOP 92): 8.44 µM
mean GI50 [1]: 0.46 µM
IC (TGI) (MDA-N): 13.4 µM
IC (TGI) (H 322M): 30.2 µM
IC (TGI) (ACHN): 0.37 µM
IC (TGI) (A 498): 1.76 µM
IC (TGI) (H 522): 13 µM
IC (TGI) (H 23): 0.76 µM
IC (TGI) (RXF 393): 15.9 µM
IC (TGI) (UO 31): 1.23 µM
IC (TGI) (HCT 15): > 30 µM
IC (TGI) (HT 29): 7.94 µM
IC (TGI) (HCC 2998): 7.65 µM
IC (TGI) (HCT 116): 8.01 µM
IC (TGI) (MCF 7/ ADR): 1.21 µM
IC (TGI) (BT 549): 32 µM
IC (TGI) (KM 12): 27.4 µM

CCc1c2c(nc3ccccc13)-c1cc3c(c(=O)n1C2OCCO)COC(=O)[C@]3(O)CC (stereo partly shown) [Example 32, 5-(2'-Hydroxyethoxy)-7-ethylcamptothecin]
IC (TGI) (KD 488; 48 h): 2.28 µM
GI50 (KD 488): 0.246 µM

CC[C@@]1(O)C(=O)OCc2c1cc1n(c2=O)C(OCCOC)c2cc3ccccc3nc2-1 (stereo partly shown) [Example 43, 5-(2'-methoxyethoxy)camptothecin]
IC (TGI) (H 226): 6.89 µM
IC (TGI) (MCF7 / ADR / RES): 9.3 µM
IC (TGI) (H 460): 14.2 µM
IC (TGI) (COLO 205): 37.3 µM
mean GI50 [1]: 2.23 µM
IC (TGI) [2]: 23.6 µM
IC (TGI) (H 23): 2.52 µM
IC (TGI) (MCF 7): 17.8 µM
IC (TGI) (HT 29): 18.9 µM
IC (TGI) (HCC 2998): 23.2 µM
IC (TGI) (KM 12): 41.9 µM
IC (TGI) (HOP 62): 3.92 µM

CC=c1c2cc3ccccc3nc2c2cc3c(c(=O)n12)COC(=O)[C@]3(O)CC [formula 11]
anti-tumor activity [3]: anti-tumor activity comparable to that of 20(S)-camptothecin
